In brackets after ≈: the same amount, converted by molar mass. Like-named read-outs stand apart in the source and are kept apart here.
Key:
[1] = Cytotoxicity on growing MRC-5 cells (MTS); format: cell-based, human; conditions: human, mrc-5 cells; Table 4; 50% inhibition of logphase growing cells; read-out: TC50 Growing MRC-5
Method: (§1) Cell Culture. Vero (African Green Monkey kidney cells) and MRC-5 (diploid Human Embryonic Lung fibroblasts) cells were obtained from the American Type Culture Collection (ATCC) and were grown in minimal essential medium (MEM) with Earl's salts and glutamine (GIBCO BRL, Life Technologies, Inc.) with 10% heat inactivated fetal bovine serum (GIBCO BRL) and penicillin (100 μg/mL)/streptomycin (100 μg/mL).
(§2) Cytotoxicity Analysis. The cytotoxicity of the compound was assayed using few the CellTiter 96™ Aqueous Non-Radioactive Cell Proliferation (MTS) Assay (Promega). Briefly, viable cell number was determined by trypan blue staining and cells (MRC-5 and Vero) were resuspended in minimal essential medium (MEM) supplemented with 10% FBS (GIBCO). Eighty microliters of cell suspension (1.7×10^4 cells/well) was dispensed onto a 96-well microtiter plates. At this time 20 μL of drug (or control) was added to appropriate wells. Each concentration was assayed in quadruplicate. The plates were incubated at 37° C. in a humidified 5% CO2 atmosphere for 4 days and MTS assay was performed according to the manufacturer's instructions. The average absorbence of the sample was graphed for each concentration and the data obtained was used to calculate TC50 (the concentration necessary to give one-half maximum growth) for each compound.

herpesviruses = conditions: cited from earlier work
[2] = Cytotoxicity on static MRC-5 cells; format: cell-based; conditions: human, Table 4, 50% cell death (static cells), read-out: TC50 Static MRC-5
Method: as §1, §2

[3] = Cytotoxicity on growing Vero cells (MTS); format: cell-based; conditions: african green monkey, Table 4, 50% inhibition of logphase growing cells, read-out: TC50 Growing Vero
Method: as §1, §2

normal cells = conditions: relative to antiviral concentrations; cited from earlier work
[4] = cited from earlier work
[5] = Cytotoxicity on static Vero cells; format: cell-based; conditions: african green monkey, Table 4, 50% cell death (static cells), read-out: TC50 Static Vero
Method: as §1, §2

[6] = test system: bone marrow progenitor cells; conditions: cited from earlier work
HCMV (Town strain) = test: HCMV plaque reduction (CPE) assay in MRC-5 cells; format: cell-based, human cytomegalovirus; conditions: Human betaherpesvirus 5, MRC5; Table 4; read-out: IC50 HCMV
Method: The adenine analog phosphazole (compound T70241) was assayed for antiviral activity using a HCMV plaque reduction assay, in accordance with known methods such as that described in U.S. Pat. No. 5,446,045.
as §1
CMV Cytopathic Effect (CPE) Assay. Assays were performed essentially as described by Lewis et al. (111), which report is incorporated herein by reference. MRC-5 cells (100,000 cells/well) were seeded in 24-well plates overnight. Medium was then removed and wells were rinsed once with 250 μL of 2% FCS-MEM before adding 40-50 pfu of HCMV (Town strain) to each well. After 2 hours of virus adsorption, the medium was removed and the cells were rinsed once with 2% FCS-MEM. Varying concentrations of the phosphazole compound in the culture medium (1 mL) was then added to appropriate wells and plates were incubated for 5-6 days at 37° C. in a humidified 5% CO2 atmosphere. Each concentration was tested in duplicate wells.
The extent of the plaque reduction was quantitated by removing the media and adding 200 μL of 0.1% crystal violet in 20% methanol to all wells. The crystal violet was then removed after 10 min staining at room temperature by rinsing in the sink with tap water and the plates dried overnight. The plaques were then counted using a Nikon inverted microscope.

[7] = test system: murine mammary carcinoma (FM3) cells; conditions: in culture; cited from earlier work
[8] = test system: murine leukemia (L1210) cells; conditions: in culture; cited from earlier work
vaccinia virus = conditions: in culture; cited from earlier work
coxsackie B4 virus = conditions: in culture; cited from earlier work
[9] = test system: human T-lymphoblast (Molt-4F) cells; conditions: in culture; cited from earlier work
[10] = test system: vesicular stomatitis virus; conditions: in culture; cited from earlier work
[11] = test system: human B-lymphoblast (Raji) cells; conditions: in culture; cited from earlier work

| Structure (SMILES) | CC50 at 96 h [1] [µg/mL] | activity against herpesviruses (herpesviruses) | CC50 at 96 h [2] [µg/mL] | CC50 at 96 h [3] [µg/mL] | concentration needed to inhibit growth of normal cells (normal cells) | clinical toxicity ([4]; human, in vivo) | CC50 at 96 h [5] [µg/mL] | toxicity to bone marrow progenitor cells [6] | IC50 (HCMV (Town strain)) [µg/mL] | inhibition of proliferation of FM3 [7] | inhibition of proliferation of L1210 [8] | activity against vaccinia virus (vaccinia virus) | activity against coxsackie B4 virus (coxsackie B4 virus) | inhibition of proliferation of Molt-4F [9] | activity against vesicular stomatitis virus [10] | inhibition of proliferation of Raji [11] | clinical toxicity ([4]; patients) |
| --- | --- | --- | --- | --- | --- | --- | --- | --- | --- | --- | --- | --- | --- | --- | --- | --- | --- |
| Nc1nc(O)c2ncn(COC(CO)CO)c2n1 [DHPG, ganciclovir, reference compound] | > 250 | potent inhibitor of most human and animal herpes viruses in culture | > 250 | > 250 | much higher concentrations are needed to inhibit cell growth of normal cells | most clinical toxicity is myelosuppression | > 250 | toxic to bone marrow progenitor cells in culture | 3.5 (≈ 13.7 µM) |  |  |  |  |  |  |  |  |
| CCOP(=O)(OCC)c1nc2c(Cl)ncnc2n1[C@@H]1O[C@H](CO)[C@@H](O)[C@H]1O [compound 1, Diethyl 6-chloro-9-(β-D-ribofuranosyl)purine-8-phosphate] |  |  |  |  |  |  |  |  |  | inhibitory | inhibitory | significant activity | significant activity | inhibitory | significant activity | inhibitory |  |
| O=C(O)P(=O)(O)O [foscarnet] |  | observed activity against all known human herpesviruses |  |  |  |  |  |  |  |  |  |  |  |  |  |  | nephrotoxicity, hypocalcemia, and seizures in some patients |
